Among the test systems are DU-145 prostate; HCT-15 colon; HOP-92 NSCLC; IGROV1 ovarian; KM12 colon; MCF7 breast; MDA-MB-231 breast; MDA-N; NCI-H226 lung; NCI-H23 lung; OVCAR-3 ovarian; OVCAR-8 ovarian; SF-268 CNS; SK-MEL-28 melanoma; SK-MEL-5 melanoma; SK-OV-3 ovarian; SR leukemia; U251 CNS; UACC-62 melanoma.
Holding throughout (experiment): growth of human tumour cells (NCI), 48 h

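In this assay, cells in 96-well plates receive the compound at five concentrations for 48 hours. Endpoints are linearly interpolated between the surrounding concentrations. GI50 marks 50% less growth. TGI is the concentration that stops growth completely.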

`CSC1=N/C(=C\c2ccc(Cl)cc2)C(=O)N1CN1CCOCC1`: the TGI in the assay on DU-145 prostate was above 100 µM; in the assay with HCT-15 colon it was above 100 µM; with HOP-92 NSCLC it was 30.6 µM; in the assay on IGROV1 ovarian it was above 100 µM; in the assay with KM12 colon, above 100 µM; in the assay with MCF7 breast, above 100 µM. For the same compound, the TGI in the assay on MDA-MB-231 breast was above 100 µM; with MDA-N, above 100 µM; with NCI-H226 lung it was above 100 µM; in the assay on NCI-H23 lung it was above 100 µM; with OVCAR-3 ovarian it was above 100 µM; in the assay on OVCAR-8 ovarian, 61.6 µM. The TGI in the assay with SF-268 CNS, in the assay on SK-MEL-28 melanoma, in the assay with SK-MEL-5 melanoma, in the assay with SK-OV-3 ovarian, in the assay on SR leukemia and with U251 CNS was above 100 µM each time. In the assay on UACC-62 melanoma, this compound returned a TGI above 100 µM.
In the case of `O=C(O)c1ccccc1C(=O)OCC1CCCN2CCCCC12` (stereo unspecified), the TGI in the assay on DU-145 prostate, with HCT-15 colon, with HOP-92 NSCLC, in the assay on IGROV1 ovarian, in the assay with KM12 colon and with MCF7 breast was above 100 µM each time. For the same compound, the TGI in the assay with MDA-MB-231 breast, in the assay with MDA-N, in the assay on NCI-H226 lung, in the assay with NCI-H23 lung, in the assay with OVCAR-3 ovarian and in the assay on OVCAR-8 ovarian was above 100 µM throughout. For the same compound, the TGI in the assay with SF-268 CNS, in the assay with SK-MEL-28 melanoma, in the assay with SK-MEL-5 melanoma, in the assay with SK-OV-3 ovarian, with SR leukemia and with U251 CNS was above 100 µM in each case. Besides, the TGI in the assay on UACC-62 melanoma was above 100 µM.
`CC1=CC[C@@]2(C)[C@@H]([C@@H]1C)[C@H]1CC[C@@H]3[C@@]4(C)CC[C@H](O)C(C)(C)[C@@H]4CC[C@@]3(C)[C@]1(C)C[C@@H]2O`: the TGI is 25.6 µM in the assay with DU-145 prostate; above 71.6 µM with HCT-15 colon; 53 µM in the assay on HOP-92 NSCLC; 42.2 µM in the assay on IGROV1 ovarian; above 74.8 µM in the assay on KM12 colon; above 100 µM in the assay with MCF7 breast. The TGI in the assay on MDA-MB-231 breast is 20.2 µM; in the assay with MDA-N it was above 55.4 µM; in the assay with NCI-H226 lung it was above 100 µM; in the assay on NCI-H23 lung, above 55.1 µM; with OVCAR-3 ovarian, 45.5 µM; in the assay with OVCAR-8 ovarian, 28.7 µM. For the same compound, the TGI in the assay on SF-268 CNS was 25.2 µM; in the assay with SK-MEL-28 melanoma, 13.9 µM; in the assay on SK-MEL-5 melanoma, above 62 µM; in the assay with SK-OV-3 ovarian, above 64.7 µM; in the assay on SR leukemia, 7.34 µM; in the assay on U251 CNS, 23.1 µM. The same compound returned a TGI in the assay on UACC-62 melanoma above 68.8 µM.
For `C/C(=C\c1csc(C)n1)[C@@H]1C[C@@H]2O[C@]2(C)CCC[C@H](C)[C@H](O)[C@@H](C)C(=O)C(C)(C)[C@@H](O)CC(=O)O1` (tested in a mixture with another compound), the GI50 in the assay with DU-145 prostate is 0.00528 µM. The TGI is 0.0682 µM in the assay on DU-145 prostate; above 1 µM in the assay on HCT-15 colon; above 1 µM with HOP-92 NSCLC; above 1 µM with IGROV1 ovarian; above 0.44 µM with KM12 colon; above 1 µM in the assay with MCF7 breast. In addition, the TGI in the assay on MDA-MB-231 breast is above 0.346 µM; in the assay with MDA-N it was 0.00205 µM; in the assay with NCI-H226 lung, above 1 µM; with NCI-H23 lung, above 1 µM; in the assay on OVCAR-3 ovarian it was 0.0839 µM; in the assay with OVCAR-8 ovarian, above 0.33 µM. Also, the TGI was above 1 µM with SF-268 CNS; above 1 µM in the assay on SK-MEL-28 melanoma; above 1 µM in the assay with SK-MEL-5 melanoma; above 0.72 µM with SK-OV-3 ovarian; above 0.239 µM in the assay with SR leukemia; above 1 µM in the assay on U251 CNS. The compound also gave a TGI with UACC-62 melanoma above 1 µM.
Take `c1ccc2c(OCC3CO3)ccc(OCC3CO3)c2c1` (stereo unspecified): the TGI with DU-145 prostate is 5.47 µM; with HCT-15 colon, 14.9 µM; in the assay on HOP-92 NSCLC, 18.4 µM; with IGROV1 ovarian, 16 µM; in the assay on KM12 colon it was 16.1 µM; in the assay on MCF7 breast it was 4.66 µM. For the same compound, the TGI in the assay with MDA-MB-231 breast was found to be 22.3 µM; in the assay on MDA-N, 13 µM; in the assay on NCI-H226 lung, 27.7 µM; in the assay on NCI-H23 lung, 6.67 µM; with OVCAR-3 ovarian, 6.75 µM; in the assay on OVCAR-8 ovarian it was 10.4 µM. For the same compound, the TGI with SF-268 CNS was found to be 12.1 µM; in the assay with SK-MEL-28 melanoma, 21.5 µM; with SK-MEL-5 melanoma it was 19 µM; with SK-OV-3 ovarian, 26.6 µM; in the assay with SR leukemia, 11.1 µM; in the assay on U251 CNS it was 6.32 µM. The compound also showed a TGI in the assay with UACC-62 melanoma of 12.2 µM.
`O=C1CC(n2cccc2)c2cc(Br)sc21` (stereo unspecified): the TGI with DU-145 prostate, in the assay with HCT-15 colon, in the assay on HOP-92 NSCLC, with IGROV1 ovarian, with KM12 colon and with MCF7 breast was above 100 µM each time. The TGI with MDA-MB-231 breast, in the assay with MDA-N, in the assay with NCI-H226 lung, in the assay on NCI-H23 lung, with OVCAR-3 ovarian and in the assay with OVCAR-8 ovarian was above 100 µM each time. Besides, the TGI in the assay on SF-268 CNS, with SK-MEL-28 melanoma, in the assay with SK-MEL-5 melanoma, with SK-OV-3 ovarian, with SR leukemia and in the assay with U251 CNS was above 100 µM throughout. For the same compound, in the assay with UACC-62 melanoma, the TGI was above 100 µM.
For `CCN(CC)CCN1CCN=c2c3cc(OC)ccc3n3cnc4ccc1c2c43`, the TGI in the assay on DU-145 prostate worked out at 4.39 µM; with HCT-15 colon, 1.9 µM; in the assay on HOP-92 NSCLC it was 4.42 µM; in the assay with IGROV1 ovarian, 2.45 µM; with KM12 colon, 2.45 µM; in the assay with MCF7 breast, 0.847 µM. In addition, the TGI in the assay with MDA-MB-231 breast worked out at 2.33 µM; in the assay on MDA-N it was 1.79 µM; in the assay on NCI-H226 lung it was 5.3 µM; with NCI-H23 lung, 4.61 µM; in the assay with OVCAR-3 ovarian, 3.26 µM; with OVCAR-8 ovarian it was 2.26 µM. Further, the TGI turned out to be 2.54 µM with SF-268 CNS; 3.51 µM in the assay on SK-MEL-28 melanoma; 3.27 µM in the assay on SK-MEL-5 melanoma; 5.16 µM in the assay on SK-OV-3 ovarian; 1.64 µM in the assay with SR leukemia; 2.74 µM with U251 CNS. The compound also gave a TGI in the assay with UACC-62 melanoma of 7.3 µM.
In the case of `CCCOc1ccc(/C=C/C2=[N+](CCO)CCO2)cc1`, the TGI in the assay on DU-145 prostate, in the assay on HCT-15 colon, in the assay on HOP-92 NSCLC, with IGROV1 ovarian, in the assay with KM12 colon and in the assay on MCF7 breast was above 100 µM each time. For the same compound, the TGI in the assay with MDA-MB-231 breast, with MDA-N, with NCI-H226 lung, in the assay on NCI-H23 lung, in the assay with OVCAR-3 ovarian and in the assay on OVCAR-8 ovarian was above 100 µM in each case. The TGI in the assay on SF-268 CNS, in the assay on SK-MEL-28 melanoma, in the assay on SK-MEL-5 melanoma, with SK-OV-3 ovarian, in the assay on SR leukemia and in the assay with U251 CNS was above 100 µM each time. The TGI with UACC-62 melanoma is above 100 µM.
For the compound `O=c1c2cc([N+](=O)[O-])cnc2sn1-c1ccc(Oc2ccccc2)cc1`, the TGI is above 100 µM with DU-145 prostate; above 100 µM in the assay with HCT-15 colon; 90.2 µM in the assay with HOP-92 NSCLC; above 100 µM with IGROV1 ovarian; above 100 µM in the assay on KM12 colon; above 100 µM with MCF7 breast. The TGI in the assay on MDA-MB-231 breast was 90.7 µM; in the assay on MDA-N, above 100 µM; in the assay on NCI-H226 lung, above 100 µM; in the assay with NCI-H23 lung, above 100 µM; in the assay with OVCAR-3 ovarian, above 100 µM; in the assay with OVCAR-8 ovarian, above 100 µM. Also, the TGI in the assay on SF-268 CNS was above 100 µM; in the assay on SK-MEL-28 melanoma, above 100 µM; in the assay on SK-MEL-5 melanoma, above 100 µM; in the assay with SK-OV-3 ovarian, 87.5 µM; in the assay with SR leukemia, above 100 µM; in the assay with U251 CNS it was above 100 µM. In the assay on UACC-62 melanoma, this compound came in with a TGI above 100 µM.
Take `COC(=O)C(Cc1ccccc1)C(=O)NC(CNC(=O)OCc1ccccc1)C(=O)OCc1ccccc1` (stereo unspecified): the TGI with DU-145 prostate was above 100 µM; in the assay with HCT-15 colon, above 100 µM; with HOP-92 NSCLC, above 72.3 µM; in the assay on IGROV1 ovarian it was above 100 µM; in the assay with KM12 colon, above 100 µM; in the assay on MCF7 breast it was above 100 µM. Also, the TGI is 50.3 µM in the assay on MDA-MB-231 breast; 58 µM in the assay with MDA-N; above 80.2 µM with NCI-H226 lung; above 100 µM in the assay with NCI-H23 lung; 48.7 µM with OVCAR-3 ovarian; above 100 µM in the assay with OVCAR-8 ovarian. Besides, the TGI with SF-268 CNS is above 100 µM; in the assay with SK-MEL-28 melanoma, 44 µM; in the assay on SK-MEL-5 melanoma, 34 µM; in the assay with SK-OV-3 ovarian, above 100 µM; in the assay on SR leukemia, above 69.2 µM; with U251 CNS, above 100 µM. Besides, the TGI in the assay with UACC-62 melanoma was found to be 49.3 µM.

(Values after PubChem BioAssay (NCI).)
